{
  "source": "patent US20100120700A1",
  "about": "“METHODS AND COMPOSITIONS FOR TREATING CERVICAL CANCER” (priority 2000, published 2010)",
  "test_system": "c-JUN N-terminal kinase (JNK)",
  "assay": "Jun kinase assay in microinjected Xenopus oocytes",
  "type": "cell-based",
  "description": "Experimental Design: This experiment was divided into two phases. In the first phase, an MBP-E6 fusion protein (HPV16; see example 4) was microinjected into Xenopus oocytes at different concetrations and then the oocytes were assayed for INK activity. In the second phase, peptides corresponding to the C-termini of non-oncogenic E6 protein (HPV11), HPV16 E6 (oncogenic) or Tax (shown to block oncogenic E6 binding to PDZ domains, FIG. 3) were co-injected with an activating amount of MBP-E6 fusion protein to assess ther abilities to block JNK activation.\nIsolation and Microinjection of Oocytes—Xenopus ovarian tissue was surgically removed, and oocytes were defolliculated for 1-1.5 h at room temperature with 2 mg/ml collagenase and 0.5 mg/ml polyvinylpyrrolidone in Ca21-free modified Barth's solution (88 mM NaCl, 1 mM KCl, 0.82 mM MgSO4, 2.4 mM NaHCO3, 10 mM HEPES, pH 7.5). The oocytes were then washed four times with modified Barth's solution. Stage VI oocytes were sorted manually and incubated at 16° C. for at least 10 h in OR2 solution (82.5 mM NaCl, 2.5 mM KCl, 1 mM CaCl2, 1 mM Na2HPO4, 5 mM HEPES, pH 7.5) supplemented with 1 mg/ml bovine serum albumin and […] gentamicin. Immature oocytes were microinjected with purified MBP-E6 protein or E6 protein and peptide and transferred to fresh OR2 for the duration of the time course. Five oocytes were collected per time point, frozen on dry ice, and stored at −80° C.\nLysis of Oocytes, Eggs, and Embryos—Frozen oocytes, eggs, and embryos were thawed rapidly and lysed by pipetting up and down in 60 ml of ice-cold extraction buffer (EB) (0.25 M sucrose, 0.1 M NaCl, 2.5 mM MgCl2, 20 mM HEPES, pH 7.2) containing 10 mM EDTA, protease inhibitors (10 mg/ml leupeptin, 10 mg/ml pepstatin, 10 mg/ml aprotinin, 1 mM phenylmethylsulfonyl fluoride), and phosphatase inhibitors (50 mM 2-glycerophosphate, 1 mM sodium orthovanadate, 2 mM microcystin). Samples were clarified by centrifugation for 2.5 min in a Beckman E microcentrifuge with a right angle rotor. Crude cytoplasm was collected and processed for immunoblotting or kinase assays, as described below.\nJun Kinase Assay—Jun kinase assays were performed as described. Crude oocyte, egg, or embryo cytoplasm was diluted 1:1 in EB and pre-cleared with 20 ml of glutathione-Sepharose beads (Amersham Pharmacia Biotech) for 1 h at 4° C. with moderate shaking. Lysates were incubated with glutathione S-transferase GST-c-Jun-(1-79) fusion protein (hereafter denoted GST-Jun) immobilized on glutathione- Sepharose beads. After 3 h at 4° C., the beads were washed three times with 50 mM HEPES, pH 7.5, 150 mM NaCl, 1% Triton X-100, 1 mM EDTA, 10% glycerol, 10 mM sodium pyrophosphate, 2 mM sodium orthovanadate, 10 mM sodium fluoride, 1 mM phenylmethylsulfonyl fluoride, and 10 mg/ml aprotinin (24) and once with 0.4 ml of kinase buffer (20 mM HEPES, pH 7.5, 10 mM MgCl2, 1 mM dithiothreitol, 200 mM sodium orthovanadate). The bound JNK activity was detected by the addition of 1 mCi of [g-32]JATP. The reaction was terminated after 20 min at 30° C., and the products were resolved by SDS-PAGE. The gels were transferred to PVDF membranes (Hybond; Amersham Pharmacia Biotech) and the incorporation of [32P]phosphate into GST-Jun was visualized by autoradiography. […]",
  "note": "Entries after “also recorded” stand apart in the source; their conditions may differ.",
  "data": [
    {"substance": "20 mer peptide corresponding to the C-terminus of HPV16 E6 (PDZ ligand), biotinylated in binding assays; ends SSRTRRETQL (SEQ ID NO: 13) [HPV E6 #16]", "values": [
      {"measurement": "inhibition of HPV16 E6-dependent JNK activation by co-injected peptide", "result": "can be inhibited by peptide representing HPV E6 16 oncoprotein; also recorded: can be inhibited by peptide representing the c-terminus of the HPV16 E6 oncoprotein; also recorded: blocked E6-dependent INK activation"}
    ]}
  ]
}
